As a reminder, the Ki is the equilibrium dissociation constant of an inhibitor or competing ligand from its target.

Activity calls are given as the source filed them. The calls are words filed in the database; no cut-off is given here.

Sequence of Transient receptor potential cation channel subfamily V member 1 (Q8NER1 whole entry): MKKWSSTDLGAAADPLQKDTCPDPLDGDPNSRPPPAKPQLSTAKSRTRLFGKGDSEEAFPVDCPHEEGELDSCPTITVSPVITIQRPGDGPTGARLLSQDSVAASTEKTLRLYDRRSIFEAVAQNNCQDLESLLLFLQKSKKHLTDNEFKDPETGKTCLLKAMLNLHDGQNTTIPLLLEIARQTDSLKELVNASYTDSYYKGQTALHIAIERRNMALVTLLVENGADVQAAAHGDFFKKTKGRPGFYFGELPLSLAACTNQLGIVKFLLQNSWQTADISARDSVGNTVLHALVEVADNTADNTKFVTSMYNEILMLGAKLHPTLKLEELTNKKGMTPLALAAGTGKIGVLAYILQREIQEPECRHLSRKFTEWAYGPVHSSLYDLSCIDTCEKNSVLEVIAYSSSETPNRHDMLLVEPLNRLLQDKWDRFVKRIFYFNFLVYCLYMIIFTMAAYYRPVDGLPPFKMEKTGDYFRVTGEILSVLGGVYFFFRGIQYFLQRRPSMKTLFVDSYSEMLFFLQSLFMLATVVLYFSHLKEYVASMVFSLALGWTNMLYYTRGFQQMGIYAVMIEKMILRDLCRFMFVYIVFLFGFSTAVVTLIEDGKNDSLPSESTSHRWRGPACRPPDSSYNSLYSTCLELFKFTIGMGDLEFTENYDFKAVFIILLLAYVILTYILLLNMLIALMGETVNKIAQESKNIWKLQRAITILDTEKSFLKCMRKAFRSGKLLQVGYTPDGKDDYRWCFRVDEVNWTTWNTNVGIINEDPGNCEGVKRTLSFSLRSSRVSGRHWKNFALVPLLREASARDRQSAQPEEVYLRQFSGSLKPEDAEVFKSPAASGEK

The test system of the first test is Mus musculus. In words: Analgesic activity in Bennett mouse model of neuropathic pain assessed as reduction in chronic constriction injury-induced cold allodynia at 10 mg/kg, po relative to control. The class given is functional.
Consider `C[C@H](C(=O)NCc1ccc(C(C)(C)C)nc1SC1CCCCC1)c1ccc(NS(C)(=O)=O)c(F)c1`, for which the outcome was Active. As for `C[C@H](C(=O)NCc1ccc(C(C)(C)C)cc1SC1CCCCC1)c1ccc(NS(C)(=O)=O)c(F)c1`, the MPE amounted to 83%.

Another test relates to Mus musculus. The test can be described thus: Analgesic activity in Bennett mouse model of neuropathic pain assessed as reduction in chronic constriction injury-induced cold allodynia at 3 mg/kg, po relative to control. The class given is functional.
Take `C[C@H](C(=O)NCc1ccc(C(C)(C)C)nc1SC1CCCCC1)c1ccc(NS(C)(=O)=O)c(F)c1`: the MPE was 50%.

For a further test, the system named is Mus musculus. In words: Analgesic activity in po dosed Bennett mouse model of neuropathic pain assessed as reduction in chronic constriction injury-induced cold allodynia. The class given is functional, organism-based.
For `C[C@H](C(=O)NCc1ccc(C(C)(C)C)cc1SC1CCCCC1)c1ccc(NS(C)(=O)=O)c(F)c1`, the Activity entry was “Dose-dependent effect”.

The subject of the next test is Mus musculus. The test can be described thus: Analgesic activity in mouse assessed as reduction in capsaicin induced hypothermia at 3 mg/kg, po relative to control. Type of test: functional.
Consider `C[C@H](C(=O)NCc1ccc(C(C)(C)C)nc1SC1CCCCC1)c1ccc(NS(C)(=O)=O)c(F)c1`, for which the MPE was 46%.

The subject of the next test is Mus musculus. In words: Analgesic activity in mouse assessed as reduction in capsaicin induced hypothermia at 10 mg/kg, po relative to control. The class given is functional.
Regarding `C[C@H](C(=O)NCc1ccc(C(C)(C)C)nc1SC1CCCCC1)c1ccc(NS(C)(=O)=O)c(F)c1`, the MPE worked out at 15%.

Another test has as its target Transient receptor potential cation channel subfamily V member 1 (Homo sapiens, UniProt Q8NER1). In words: Antagonist activity at human TRPV1 expressed in CHOK1 cells assessed as inhibition of capsaicin induced calcium influx pretreated for 6 mins followed by capsaicin addition by Fluo-4/Pluronic F127 probe based FLIPR method. Type of test: cell-based.
For the compound `C[C@H](C(=O)NCc1ccc(C(C)(C)C)nc1SC1CCCCC1)c1ccc(NS(C)(=O)=O)c(F)c1`, the Ki was found to be 3.4 nM. Take `COc1ccc(CSc2nc(C(C)(C)C)ccc2CNC(=O)C(C)c2ccc(NS(C)(=O)=O)c(F)c2)cc1` (stereo not drawn): the Ki came out at 3.5 nM.

As to `CC(C(=O)NCc1ccc(C(C)(C)C)nc1SCc1ccccc1Cl)c1ccc(NS(C)(=O)=O)c(F)c1` (stereo not drawn), the Ki was determined as 3.8 nM. For the compound `CCCCCSc1nc(C(C)(C)C)ccc1CNC(=O)C(C)c1ccc(NS(C)(=O)=O)c(F)c1` (stereo not drawn), the Ki worked out at 3.1 nM.

As for `CC(C(=O)NCc1ccc(C(C)(C)C)nc1SCc1ccc(Cl)cc1)c1ccc(NS(C)(=O)=O)c(F)c1` (stereo not drawn), the Ki turned out to be 3.4 nM. Regarding `CC(C(=O)NCc1ccc(C(C)(C)C)nc1SCc1ccccc1)c1ccc(NS(C)(=O)=O)c(F)c1` (stereo not drawn), the Ki stood at 4 nM. On the same count and under the same terms, to `CCCCSc1nc(C(C)(C)C)ccc1CNC(=O)C(C)c1ccc(NS(C)(=O)=O)c(F)c1` (stereo not drawn) belongs 3.2 nM. Take `CC(C(=O)NCc1ccc(C(C)(C)C)nc1N1CCCCC1)c1ccc(NS(C)(=O)=O)c(F)c1` (stereo not drawn): the Ki was 1.1 nM.

Turning to `CC(C)CCSc1nc(C(C)(C)C)ccc1CNC(=O)C(C)c1ccc(NS(C)(=O)=O)c(F)c1` (stereo not drawn), the Ki stood at 5.9 nM. Consider `CCCOc1cc(C(C)(C)C)ccc1CNC(=O)C(C)c1ccc(NS(C)(=O)=O)c(F)c1` (stereo not drawn), for which the Ki amounted to 4.4 nM. For `C[C@@H](C(=O)NCc1ccc(C(C)(C)C)nc1SC1CCCCC1)c1ccc(NS(C)(=O)=O)c(F)c1`, the Ki came out at 36.4 nM. For the compound `CC(C(=O)NCc1ccc(C(C)(C)C)nc1N1CCC(Cc2ccccc2)CC1)c1ccc(NS(C)(=O)=O)c(F)c1` (stereo not drawn), the Ki amounted to 0.3 nM. On to `CC(C(=O)NCc1ccc(C(C)(C)C)nc1-c1ccc(F)cc1)c1ccc(NS(C)(=O)=O)c(F)c1` (stereo not drawn), for which the Ki was found to be 0.3 nM.

For `CC(C(=O)NCc1ccc(C(C)(C)C)cc1N1CCN(c2ccccc2)CC1)c1ccc(NS(C)(=O)=O)c(F)c1` (stereo not drawn), the Ki was 0.8 nM.

For `CC(C(=O)NCc1ccc(C(C)(C)C)cc1C1CCCCC1)c1ccc(NS(C)(=O)=O)c(F)c1` (stereo not drawn), the Ki worked out at 9.8 nM.

`CC(C(=O)NCc1ccc(C(C)(C)C)nc1SCCCN1CCCC1)c1ccc(NS(C)(=O)=O)c(F)c1` (stereo not drawn): the Ki was determined as 17.1 nM. Same read-out and setting: to `COc1cccc(COc2nc(C(C)(C)C)ccc2CNC(=O)C(C)c2ccc(NS(C)(=O)=O)c(F)c2)c1` (stereo not drawn) belongs 6 nM. `CC(C(=O)NCc1ccc(C(C)(C)C)nc1SCC(F)(F)F)c1ccc(NS(C)(=O)=O)c(F)c1` (stereo not drawn): the Ki worked out at 4.1 nM.

With `CCC1CCN(c2nc(C(C)(C)C)ccc2CNC(=O)C(C)c2ccc(NS(C)(=O)=O)c(F)c2)CC1` (stereo not drawn), the Ki was 0.1 nM. Regarding `CC(C(=O)NCc1ccc(C(C)(C)C)cc1N1CCCCC1)c1ccc(NS(C)(=O)=O)c(F)c1` (stereo not drawn), the Ki is 1.9 nM. As to `CCCCSc1cc(C(C)(C)C)ccc1CNC(=O)C(C)c1ccc(NS(C)(=O)=O)c(F)c1` (stereo not drawn), the Ki is 6.7 nM. Take `CCCCN(C)c1nc(C(C)(C)C)ccc1CNC(=O)C(C)c1ccc(NS(C)(=O)=O)c(F)c1` (stereo not drawn): the Ki was found to be 1.2 nM. On to `CC(C(=O)NCc1ccc(C(C)(C)C)cc1OCc1ccccc1)c1ccc(NS(C)(=O)=O)c(F)c1` (stereo not drawn), for which the Ki stood at 2.9 nM.

Turning to `CC(C(=O)NCc1ccc(C(C)(C)C)cc1OCc1ccc(F)cc1)c1ccc(NS(C)(=O)=O)c(F)c1` (stereo not drawn), the Ki was found to be 3.8 nM. Take `CC(C(=O)NCc1ccc(C(C)(C)C)nc1SCCCN1CCOCC1)c1ccc(NS(C)(=O)=O)c(F)c1` (stereo not drawn): the inhibition constant Ki was found to be 112 nM. In the case of `CC1CCN(c2cc(C(C)(C)C)ccc2CNC(=O)C(C)c2ccc(NS(C)(=O)=O)c(F)c2)CC1` (stereo not drawn), the Ki came to 0.7 nM.

As to `CC(C)CCOc1cc(C(C)(C)C)ccc1CNC(=O)C(C)c1ccc(NS(C)(=O)=O)c(F)c1` (stereo not drawn), the Ki was 0.6 nM. As to `CC(C(=O)NCc1ccc(C(C)(C)C)nc1C1CCCCC1)c1ccc(NS(C)(=O)=O)c(F)c1` (stereo not drawn), the Ki is 3.1 nM. The same measure, in the same setting: to `CC(C(=O)NCc1ccc(C(C)(C)C)cc1SC1CCCCC1)c1ccc(NS(C)(=O)=O)c(F)c1` (stereo not drawn) belongs 7.4 nM; to `C[C@H](C(=O)NCc1ccc(C(C)(C)C)cc1SC1CCCCC1)c1ccc(NS(C)(=O)=O)c(F)c1`, 6 nM; to `CC(C(=O)NCc1ccc(C(C)(C)C)nc1OCc1ccc(F)cc1)c1ccc(NS(C)(=O)=O)c(F)c1` (stereo not drawn), 0.8 nM. Take `CC(C(=O)NCc1ccc(C(C)(C)C)cc1N1CCCC1)c1ccc(NS(C)(=O)=O)c(F)c1` (stereo not drawn): the Ki stood at 8.1 nM. For the compound `C[C@@H](C(=O)NCc1ccc(C(C)(C)C)cc1SC1CCCCC1)c1ccc(NS(C)(=O)=O)c(F)c1`, the Ki was found to be 89.2 nM. For the compound `CC(C(=O)NCc1ccc(C(C)(C)C)nc1SCCCN(C)C)c1ccc(NS(C)(=O)=O)c(F)c1` (stereo not drawn), the Ki is 51.8 nM. As for `CCCCCc1nc(C(C)(C)C)ccc1CNC(=O)C(C)c1ccc(NS(C)(=O)=O)c(F)c1` (stereo not drawn), the Ki was found to be 1.9 nM. Same read-out and setting: to `CCCCCCSc1nc(C(C)(C)C)ccc1CNC(=O)C(C)c1ccc(NS(C)(=O)=O)c(F)c1` (stereo not drawn) belongs 1.5 nM. Consider `CC(C(=O)NCc1ccc(C(C)(C)C)cc1N1CCCCCC1)c1ccc(NS(C)(=O)=O)c(F)c1` (stereo not drawn), for which the Ki is 6.2 nM. Same read-out and setting: the same measure for `CCCCCCOc1cc(C(C)(C)C)ccc1CNC(=O)C(C)c1ccc(NS(C)(=O)=O)c(F)c1` (stereo not drawn): 0.5 nM; for `CCCCCc1cc(C(C)(C)C)ccc1CNC(=O)C(C)c1ccc(NS(C)(=O)=O)c(F)c1` (stereo not drawn): 2.8 nM. In the case of `CCCCN(C)c1cc(C(C)(C)C)ccc1CNC(=O)C(C)c1ccc(NS(C)(=O)=O)c(F)c1` (stereo not drawn), the Ki was determined as 1 nM.

For the compound `CC(C(=O)NCc1ccc(C(C)(C)C)nc1SC1CCCCC1)c1ccc(NS(C)(=O)=O)c(F)c1` (stereo not drawn), the Ki amounted to 8.5 nM. Consider `CC(C(=O)NCc1ccc(C(C)(C)C)nc1SC1CCCC1)c1ccc(NS(C)(=O)=O)c(F)c1` (stereo not drawn), for which the Ki is 2.5 nM.
